Source: PMC12624712 (ACS Infectious Diseases, 2025)
Like-named read-outs stand apart in the source and are kept apart here.

Key:
RVFV strain ZH-548 = assay: microbe, parasite or virus in culture; format: cell-based; conditions: for IC50: Rift Valley fever virus
in vitro = conditions: African green monkey
RVFV L protein = RVFV L protein (Rift valley fever virus, UniProt P27316); assay: cell-based
[1] = Vero C1008, 72 h, read-out: IC50, cytopathic effect reduction assay
[2] = Vero C1008, read-out: IC50: 95% CI, CPE reduction assay

Chain of RVFV L protein (P27316 whole entry, looked up): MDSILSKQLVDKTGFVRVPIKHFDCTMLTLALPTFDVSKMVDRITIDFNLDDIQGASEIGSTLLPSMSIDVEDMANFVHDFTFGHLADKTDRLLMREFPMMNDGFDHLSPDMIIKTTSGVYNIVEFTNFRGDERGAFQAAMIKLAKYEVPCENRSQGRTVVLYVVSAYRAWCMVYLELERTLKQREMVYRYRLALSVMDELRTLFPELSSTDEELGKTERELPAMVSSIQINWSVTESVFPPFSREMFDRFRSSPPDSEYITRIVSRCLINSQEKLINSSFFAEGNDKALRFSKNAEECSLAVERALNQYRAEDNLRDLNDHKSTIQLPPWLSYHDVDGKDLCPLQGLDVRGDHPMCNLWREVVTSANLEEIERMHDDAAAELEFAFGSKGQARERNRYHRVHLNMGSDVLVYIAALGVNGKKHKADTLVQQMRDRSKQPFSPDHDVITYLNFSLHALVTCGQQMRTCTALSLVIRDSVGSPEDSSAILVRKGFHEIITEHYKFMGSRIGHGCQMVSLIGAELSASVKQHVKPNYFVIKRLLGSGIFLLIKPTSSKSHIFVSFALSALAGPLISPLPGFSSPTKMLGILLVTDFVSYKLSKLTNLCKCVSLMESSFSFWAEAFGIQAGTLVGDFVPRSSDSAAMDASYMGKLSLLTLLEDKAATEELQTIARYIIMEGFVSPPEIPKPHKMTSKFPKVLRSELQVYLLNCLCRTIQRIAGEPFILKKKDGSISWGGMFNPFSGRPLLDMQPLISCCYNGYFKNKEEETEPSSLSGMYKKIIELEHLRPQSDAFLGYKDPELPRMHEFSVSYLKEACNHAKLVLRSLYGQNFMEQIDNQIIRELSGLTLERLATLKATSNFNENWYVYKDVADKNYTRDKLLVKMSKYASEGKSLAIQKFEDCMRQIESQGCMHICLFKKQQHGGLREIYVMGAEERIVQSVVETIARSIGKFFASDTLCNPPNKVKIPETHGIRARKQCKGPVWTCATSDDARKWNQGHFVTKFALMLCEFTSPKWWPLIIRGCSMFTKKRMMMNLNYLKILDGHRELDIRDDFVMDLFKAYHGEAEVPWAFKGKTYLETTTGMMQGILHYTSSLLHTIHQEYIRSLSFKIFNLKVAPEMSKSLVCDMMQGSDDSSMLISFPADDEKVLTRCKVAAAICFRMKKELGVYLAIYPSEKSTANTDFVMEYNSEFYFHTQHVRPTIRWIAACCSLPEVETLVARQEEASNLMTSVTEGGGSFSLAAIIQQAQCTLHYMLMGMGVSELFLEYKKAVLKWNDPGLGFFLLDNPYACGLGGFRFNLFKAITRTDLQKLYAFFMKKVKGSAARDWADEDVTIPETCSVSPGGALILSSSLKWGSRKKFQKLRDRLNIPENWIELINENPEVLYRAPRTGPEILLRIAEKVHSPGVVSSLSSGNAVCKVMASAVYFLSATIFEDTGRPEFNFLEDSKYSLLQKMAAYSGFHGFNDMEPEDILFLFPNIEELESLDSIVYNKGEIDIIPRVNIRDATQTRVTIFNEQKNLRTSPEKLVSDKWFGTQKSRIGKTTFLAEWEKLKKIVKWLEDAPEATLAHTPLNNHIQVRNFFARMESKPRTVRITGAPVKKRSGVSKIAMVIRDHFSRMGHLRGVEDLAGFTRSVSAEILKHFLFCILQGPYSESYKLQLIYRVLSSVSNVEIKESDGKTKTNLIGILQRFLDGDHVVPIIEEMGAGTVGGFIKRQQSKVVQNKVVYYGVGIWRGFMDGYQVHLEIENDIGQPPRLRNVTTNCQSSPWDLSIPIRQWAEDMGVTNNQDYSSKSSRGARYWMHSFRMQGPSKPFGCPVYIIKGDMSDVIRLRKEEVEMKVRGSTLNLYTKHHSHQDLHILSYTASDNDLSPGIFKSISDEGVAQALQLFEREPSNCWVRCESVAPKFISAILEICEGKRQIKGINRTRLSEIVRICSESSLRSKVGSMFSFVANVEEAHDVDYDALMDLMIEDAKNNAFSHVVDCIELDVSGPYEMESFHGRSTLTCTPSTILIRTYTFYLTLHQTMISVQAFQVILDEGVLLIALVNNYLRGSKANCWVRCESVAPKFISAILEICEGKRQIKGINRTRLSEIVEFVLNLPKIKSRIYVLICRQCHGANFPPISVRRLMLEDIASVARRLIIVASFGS

Compound	IC50 (RVFV strain ZH-548; [1]) [µM]	CC50 (in vitro) [µM]	also measured
Nc1nc(=O)n([C@@H]2CS[C@H](CO)O2)cc1F [Emtricitabine]	> 100	> 100	–
O=c1ccn([C@@H]2O[C@H](CO)[C@@H](O)[C@H]2F)c(=O)[nH]1 [2´-fluoro-2´-deoxyuridine]	> 100	> 100	–
Nc1ccn([C@@H]2CS[C@H](CO)O2)c(=O)n1 [Lamivudine]	> 100	> 100	–
COc1c(-c2ccc3cc(NS(C)(=O)=O)ccc3c2)cc(-n2ccc(=O)[nH]c2=O)cc1C(C)(C)C [Dasabuvir]	> 100	26 ± 7	Activity against RVFV in cell culture (RVFV strain ZH-548): lacked activity
CC(=O)Nc1ccn([C@@H]2O[C@H](CO)[C@@H](O)[C@H]2F)c(=O)n1 [N4-acetyl-2'-fluoro-2'-deoxycytidine]	20 ± 3	> 100	–
CC(C)OC(=O)[C@H](C)N[P@](=O)(OC[C@H]1O[C@@H](n2ccc(=O)[nH]c2=O)[C@](C)(F)[C@@H]1O)Oc1ccccc1 [Sofosbuvir]	> 100	> 100	Activity against RVFV in cell culture (RVFV strain ZH-548): lacked activity
O=C(Nc1ccn([C@@H]2O[C@H](CO)[C@@H](O)[C@H]2F)c(=O)n1)c1ccccc1 [N4-benzoyl-2'-fluoro-2'-deoxycytidine]	34 ± 4	> 100	–
O=C(O)[C@H]1C2CCC(CC2)[C@@H]1Nc1nc(-c2c[nH]c3ncc(F)cc23)ncc1F [Pimodivir]	> 100	> 100	–
5'-aza-2'-deoxycytidine [Decitabine]	–	–	CC50 (VERO E6 cells): > 100 µM
CCCCCCCC/C=C/CCCCCCCC(=O)OC[C@H]1O[C@@H](n2ccc(N)nc2=O)C(F)(F)[C@@H]1O [Gemcitabine elaidate]	> 100	> 100	–
COC(=O)OCOc1c2n(ccc1=O)N([C@@H]1c3ccccc3SCc3c1ccc(F)c3F)[C@@H]1COCCN1C2=O [Baloxavir Marboxil]	> 100	> 100	–
Nc1ncnc2c1ncn2[C@@H]1O[C@H](CO)[C@@H](O)[C@H]1F [2´-fluoro-2´-deoxyadenosine]	> 100	> 100	–
CCCC(CCC)C(=O)Nc1ccn([C@@H]2O[C@H](CO)[C@@H](O)C2(F)F)c(=O)n1 [LY-2334737]	> 100	> 100	–
NC(=O)c1nc(F)c[nH]c1=O [Favipiravir]	37 ± 6	> 100	–
C[C@@]1(F)[C@H](O)[C@@H](CO)O[C@H]1n1ccc(N)nc1=O [PSI-6130, 2'-deoxy-2'-fluoro-2'-C-methylcytidine]	> 100	> 100	–
NC(=O)c1nccnc1O [T-1105]	> 100	> 100	–
Nc1nc2c(ncn2[C@@H]2O[C@H](CO)[C@@H](O)[C@H]2F)c(=O)[nH]1 [2´-fluoro-2´-deoxyguanosine]	23 ± 3	> 100	–

Compound	IC50 (RVFV strain ZH-548; [1]) [µM]	CC50 (in vitro) [µM]	also measured
CCC(CC)COC(=O)[C@H](C)N[P@](=O)(OC[C@H]1O[C@@](C#N)(c2ccc3c(N)ncnn23)[C@H](O)[C@@H]1O)Oc1ccccc1 [Remdesivir]	> 100	> 100	Activity against RVFV in cell culture (RVFV strain ZH-548): no effect
Cc1cn([C@@H]2O[C@H](CO)[C@@H](O)[C@H]2F)c(=O)[nH]c1=O [2´-fluoro-2´-deoxythymidine]	> 100	> 100	–
CC(C)OC(=O)[C@H](C)N[P@](=O)(CO[C@H](C)Cn1cnc2c(N)ncnc21)Oc1ccccc1 [Tenofovir Alafenamide]	> 100	> 100	–
CC(C)C(=O)OC[C@H]1O[C@@H](n2ccc(NO)nc2=O)[C@H](O)[C@@H]1O [Molnupiravir]	27 ± 4	> 100	–
Cc1cn([C@H]2C=C[C@@H](CO)O2)c(=O)[nH]c1=O [Stavudine]	> 100	> 100	–
O=c1ccn([C@@H]2C=C(CO)[C@@H](O)[C@H]2O)c(=O)[nH]1 [Cyclopentenyluracil]	> 100	> 100	–
Nc1ccn(C[C@@H](CO)OCP(=O)(O)O)c(=O)n1 [Cidofovir]	> 100	> 100	Activity against RVFV in cell culture (RVFV strain ZH-548): no effect
Nc1ccn([C@@H]2O[C@H](CO)[C@@H](O)C2(F)F)c(=O)n1 [Gemcitabine, 2'-deoxy-2',2'-difluorocytidine]	> 100	> 100	–
Nc1ccn([C@@H]2C=C(CO)[C@@H](O)[C@H]2O)c(=O)n1 [Cyclopentenylcytosine]	> 100	> 100	–
5'-azacytidine	–	–	CC50 (VERO E6 cells): > 100 µM
O=c1nc(NO)ccn1[C@@H]1O[C@H](CO)[C@@H](O)[C@H]1O [EIDD-1931]	2 ± 0.3	> 100	IC50 (RVFV strain ZH-548; [2]): 1.5 to 2.8 µM; Cytotoxicity (VERO E6 cells): nontoxic in selected concentration range; IC50 (RVFV L protein): 1.6 ± 0.2 µM
Nc1ccn([C@@H]2O[C@H](CO)[C@@H](O)[C@@H]2O)c(=O)n1 [Cytarabine, Cytosine arabinoside]	> 100	> 100	–
Nc1ccn([C@@H]2O[C@H](CO)[C@@H](O)[C@H]2F)c(=O)n1 [2'-fluoro-2'-deoxycytidine]	3 ± 0.3	> 100	IC50 (RVFV strain ZH-548; [2]): 2.4 to 3.9 µM; Cytotoxicity (VERO E6 cells): nontoxic in selected concentration range; IC50 (RVFV L protein): 5.9 ± 1.1 µM
5'-fluoro-2'-deoxycytidine	–	–	CC50 (VERO E6 cells): > 100 µM
Cc1cn([C@H]2C[C@H](N=[N+]=[N-])[C@@H](CO)O2)c(=O)[nH]c1=O [Zidovudine]	> 100	> 100	–
NC(=O)c1ncn([C@@H]2O[C@H](CO)[C@@H](O)[C@H]2O)n1 [Ribavirin]	55 ± 9	> 100	–
